Reference: ChEMBL document CHEMBL1909046, “DrugMatrix in vitro pharmacology data”

Assays:
[1] = biological target: 5-hydroxytryptamine receptor 6 (Homo sapiens, UniProt P50406); format: cell membranes, HeLa, Membrane; note: in other assays of this panel Not Active means under 50% inhibition at 10 µM
[2] = biological target: Mitogen-activated protein kinase 14 (Homo sapiens, UniProt Q16539); parameters: species or system Escherichia coli;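 note: inhibition of p38alpha enzyme activity in a biochemical kinase assay, with myelin basic protein serving as substrate; in other assays of this panel Not Active means under 50% inhibition at 10 µM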
Chain of Mitogen-activated protein kinase 14 (Q16539 whole entry): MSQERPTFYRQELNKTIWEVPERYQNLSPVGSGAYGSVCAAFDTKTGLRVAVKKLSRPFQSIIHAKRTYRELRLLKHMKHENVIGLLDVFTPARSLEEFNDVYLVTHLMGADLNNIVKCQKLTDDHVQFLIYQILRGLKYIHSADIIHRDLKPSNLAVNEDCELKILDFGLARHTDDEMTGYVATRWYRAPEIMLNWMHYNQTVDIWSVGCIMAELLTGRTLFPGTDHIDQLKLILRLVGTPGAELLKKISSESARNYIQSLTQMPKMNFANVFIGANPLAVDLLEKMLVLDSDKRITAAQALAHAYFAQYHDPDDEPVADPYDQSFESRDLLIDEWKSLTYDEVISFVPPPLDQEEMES

Mu-type opioid receptor = Mu-type opioid receptor (Homo sapiens, UniProt P35372); experiment: DRUGMATRIX: Opiate mu (OP3, MOP) radioligand binding (ligand: [3H] Diprenorphine); format: cell membranes, CHO-K1, Membrane; details: cho-k1; Not Active = under 50% inhibition at 10 µM
Chain of Mu-type opioid receptor (P35372 whole entry): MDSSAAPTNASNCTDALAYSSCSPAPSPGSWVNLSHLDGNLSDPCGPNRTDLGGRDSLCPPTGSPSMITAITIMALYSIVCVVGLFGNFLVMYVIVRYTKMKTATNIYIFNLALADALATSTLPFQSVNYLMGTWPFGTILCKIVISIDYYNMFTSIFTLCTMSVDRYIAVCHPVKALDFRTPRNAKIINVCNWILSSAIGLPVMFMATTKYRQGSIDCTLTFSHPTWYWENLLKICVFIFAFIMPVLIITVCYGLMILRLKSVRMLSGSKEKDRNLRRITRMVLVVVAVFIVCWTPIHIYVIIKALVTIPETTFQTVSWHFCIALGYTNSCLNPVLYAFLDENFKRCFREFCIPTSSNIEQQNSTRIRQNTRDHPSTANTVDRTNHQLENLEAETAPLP

[3] = DRUGMATRIX: Nicotinic Acetylcholine radioligand binding (ligand: [125I] Epibatidine); format: cell membranes, Membrane; details: imr-32; Not Active = under 50% inhibition at 10 µM
[4] = biological target: T1, Polyunsaturated fatty acid lipoxygenase ALOX15 (Oryctolagus cuniculus, UniProt P12530); experiment: biochemical; format: tissue-based, Reticulocytes; details: reticulocytes;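 note: inhibition of 15-lipoxygenase enzyme activity measured with linoleic acid as the substrate; in other assays of this panel Not Active means under 50% inhibition at 10 µM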
T1 sequence (P12530 whole entry): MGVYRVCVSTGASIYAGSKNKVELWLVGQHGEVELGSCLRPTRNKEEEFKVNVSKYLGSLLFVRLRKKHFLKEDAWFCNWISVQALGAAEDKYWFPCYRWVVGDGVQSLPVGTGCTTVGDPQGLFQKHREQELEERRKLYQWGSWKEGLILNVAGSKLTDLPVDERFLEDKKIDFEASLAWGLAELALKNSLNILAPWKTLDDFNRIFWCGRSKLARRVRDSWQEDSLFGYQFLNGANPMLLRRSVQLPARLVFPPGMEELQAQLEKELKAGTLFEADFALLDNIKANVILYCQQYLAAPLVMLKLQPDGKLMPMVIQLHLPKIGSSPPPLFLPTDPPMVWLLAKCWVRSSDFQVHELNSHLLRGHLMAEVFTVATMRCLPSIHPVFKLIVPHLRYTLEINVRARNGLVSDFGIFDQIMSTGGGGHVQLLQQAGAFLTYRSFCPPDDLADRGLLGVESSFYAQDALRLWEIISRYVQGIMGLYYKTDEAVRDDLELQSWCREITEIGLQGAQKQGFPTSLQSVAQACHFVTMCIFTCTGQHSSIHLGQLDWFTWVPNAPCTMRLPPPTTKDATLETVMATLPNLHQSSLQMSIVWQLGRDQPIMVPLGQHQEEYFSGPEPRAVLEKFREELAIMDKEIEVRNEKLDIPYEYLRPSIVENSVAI

[5] = biological target: Platelet-activating factor receptor (Homo sapiens, UniProt P25105); format: tissue-based; note: in other assays of this panel Not Active means under 50% inhibition at 10 µM
Chain of Platelet-activating factor receptor (P25105 whole entry): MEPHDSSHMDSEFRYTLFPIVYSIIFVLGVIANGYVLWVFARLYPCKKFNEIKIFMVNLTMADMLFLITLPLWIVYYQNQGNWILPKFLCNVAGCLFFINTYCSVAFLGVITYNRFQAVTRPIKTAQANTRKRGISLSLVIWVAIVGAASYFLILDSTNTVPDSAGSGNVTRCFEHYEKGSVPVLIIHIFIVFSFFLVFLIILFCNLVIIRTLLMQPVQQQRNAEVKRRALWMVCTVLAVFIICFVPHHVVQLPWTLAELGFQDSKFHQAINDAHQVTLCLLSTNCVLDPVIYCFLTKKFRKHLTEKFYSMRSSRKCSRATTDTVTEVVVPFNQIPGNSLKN

Glucocorticoid receptor = biological target: T2, Glucocorticoid receptor (Homo sapiens, UniProt P04150); details: hela s3; note: in other assays of this panel Not Active means under 50% inhibition at 10 µM
T2 sequence (P04150 whole entry): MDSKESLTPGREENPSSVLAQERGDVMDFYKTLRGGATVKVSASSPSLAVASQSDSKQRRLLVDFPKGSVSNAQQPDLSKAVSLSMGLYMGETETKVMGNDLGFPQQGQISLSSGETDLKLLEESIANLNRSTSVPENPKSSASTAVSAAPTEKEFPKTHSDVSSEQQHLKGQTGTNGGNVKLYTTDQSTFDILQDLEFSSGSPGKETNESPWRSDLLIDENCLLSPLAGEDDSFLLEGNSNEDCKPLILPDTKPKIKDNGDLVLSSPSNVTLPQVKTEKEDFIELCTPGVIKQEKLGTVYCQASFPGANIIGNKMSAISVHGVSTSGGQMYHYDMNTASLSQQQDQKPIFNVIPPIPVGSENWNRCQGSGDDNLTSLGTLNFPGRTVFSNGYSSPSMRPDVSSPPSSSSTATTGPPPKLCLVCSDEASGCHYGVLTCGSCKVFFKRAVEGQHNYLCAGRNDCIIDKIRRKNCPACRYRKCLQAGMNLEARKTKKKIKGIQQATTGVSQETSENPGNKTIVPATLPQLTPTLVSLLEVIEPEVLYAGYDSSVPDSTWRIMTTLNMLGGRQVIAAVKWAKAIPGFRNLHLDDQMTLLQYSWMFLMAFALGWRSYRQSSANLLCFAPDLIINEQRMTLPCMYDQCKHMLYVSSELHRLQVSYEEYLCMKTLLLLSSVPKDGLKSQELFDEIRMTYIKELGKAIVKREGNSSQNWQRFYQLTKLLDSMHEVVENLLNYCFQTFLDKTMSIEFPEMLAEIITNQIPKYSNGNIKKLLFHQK

Chain of 5-hydroxytryptamine receptor 6 (P50406 whole entry): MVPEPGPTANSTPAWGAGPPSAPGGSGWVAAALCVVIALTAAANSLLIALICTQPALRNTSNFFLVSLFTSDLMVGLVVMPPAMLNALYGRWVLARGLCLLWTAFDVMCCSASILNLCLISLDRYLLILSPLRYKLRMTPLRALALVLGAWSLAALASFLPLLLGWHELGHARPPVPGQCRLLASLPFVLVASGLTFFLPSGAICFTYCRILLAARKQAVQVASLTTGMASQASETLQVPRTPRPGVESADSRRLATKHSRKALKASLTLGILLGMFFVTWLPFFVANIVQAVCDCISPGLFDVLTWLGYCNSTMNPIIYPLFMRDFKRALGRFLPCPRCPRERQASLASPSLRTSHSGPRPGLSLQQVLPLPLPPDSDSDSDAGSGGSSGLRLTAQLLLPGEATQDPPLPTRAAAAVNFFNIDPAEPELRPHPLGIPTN

| Structure (SMILES) | IC50 ([1]; hela) | IC50 [2] | IC50 (Mu-type opioid receptor) | IC50 [3] | Ki [3] | IC50 [4] | IC50 [5] | IC50 (Glucocorticoid receptor) | IC50 ([1]; read-out: IC50) |
| --- | --- | --- | --- | --- | --- | --- | --- | --- | --- |
| NNCCc1ccccc1 [PHENELZINE] | Not Active | Not Active | Not Active | Not Active | Not Active | Not Active | Not Active | Not Active | – |
| COc1ccc2c(c1OC)C(=O)O[C@@H]2[C@H]1c2c(cc3c(c2OC)OCO3)CCN1C [NOSCAPINE] | Not Active | Not Active | Not Active | Not Active | Not Active | Not Active | Not Active | Not Active | – |
| CC(=O)Oc1ccccc1C(=O)O [ASPIRIN] | Not Active | Not Active | Not Active | Not Active | Not Active | Not Active | Not Active | Not Active | – |
| Cc1cccc(C)c1NC(=O)C1CCCCN1C (configuration not stated) [MEPIVACAINE] | Not Active | Not Active | Not Active | Not Active | Not Active | Not Active | Not Active | Not Active | – |
| O=c1[nH]c(=O)n([C@H]2C[C@H](O)[C@@H](CO)O2)cc1F [FLOXURIDINE] | Not Active | Not Active | Not Active | Not Active | Not Active | Not Active | Not Active | Not Active | – |
| O=C(O)CC(O)(CC(=O)O)C(=O)O [CITRIC ACID] | Not Active | Not Active | Not Active | Not Active | Not Active | Not Active | Not Active | Not Active | – |
| Cc1cc(O)cc(C)c1Cl [CHLOROXYLENOL] | Not Active | Not Active | Not Active | Not Active | Not Active | Not Active | Not Active | Not Active | – |
| O=C(O)CCCc1cccs1 | Not Active | Not Active | Not Active | Not Active | Not Active | Not Active | Not Active | Not Active | – |
| CCCNC(=O)NS(=O)(=O)c1ccc(Cl)cc1 [CHLORPROPAMIDE] | Not Active | Not Active | Not Active | Not Active | Not Active | Not Active | Not Active | Not Active | – |
| CC(=O)OC[C@H]1O[C@@H](n2ncc(=O)[nH]c2=O)[C@H](OC(C)=O)[C@@H]1OC(C)=O [AZARIBINE] | Not Active | Not Active | Not Active | Not Active | Not Active | Not Active | Not Active | Not Active | – |
| NCCCNCCSP(=O)(O)O [AMIFOSTINE] | Not Active | Not Active | Not Active | Not Active | Not Active | Not Active | Not Active | Not Active | – |
| CC(C)(C)NCC(O)COc1cccc2c1CC(O)C(O)C2 (configuration not stated) [NADOLOL] | Not Active | Not Active | Not Active | Not Active | Not Active | Not Active | Not Active | Not Active | – |
| COc1ccnc(C[S+]([O-])c2nc3ccc(OC(F)F)cc3[nH]2)c1OC (configuration not stated) [PANTOPRAZOLE] | Not Active | Not Active | Not Active | Not Active | Not Active | Not Active | Not Active | Not Active | – |
| COC(=O)Nc1nc2cc(C(=O)c3ccc(F)cc3)ccc2[nH]1 [FLUBENDAZOLE] | Not Active | Not Active | Not Active | Not Active | Not Active | Not Active | Not Active | Not Active | – |
| CN(C)CCC=C1c2ccccc2CCc2ccccc21 [AMITRIPTYLINE] | – | Not Active | Not Active | Not Active | Not Active | Not Active | Not Active | Not Active | 140 nM |
| C[N+](C)(C)C[C@H](O)CC(=O)[O-] [LEVOCARNITINE] | Not Active | Not Active | Not Active | Not Active | Not Active | Not Active | Not Active | Not Active | – |
| CNC1=Nc2ccc(Cl)cc2C(c2ccccc2)=[N+]([O-])C1 [CHLORDIAZEPOXIDE] | Not Active | Not Active | Not Active | Not Active | Not Active | Not Active | Not Active | Not Active | – |
| CC(O)COC[C@H]1O[C@@H]2O[C@H]3[C@H](O)[C@@H](O)[C@@H](O[C@H]4[C@H](O)[C@@H](O)[C@@H](O[C@H]5[C@H](O)[C@@H](O)[C@@H](O[C@H]6[C@H](O)[C@@H](O)[C@@H](O[C@H]7[C@H](O)[C@@H](O)[C@@H](O[C@H]8[C@H](O)[C@@H](O)[C@@H](O[C@H]1[C@H](O)[C@H]2O)O[C@@H]8COCC(C)O)O[C@@H]7COCC(C)O)O[C@@H]6COCC(C)O)O[C@@H]5COCC(C)O)O[C@@H]4COCC(C)O)O[C@@H]3COCC(C)O (stereo partly drawn) [2-HYDROXYPROPYL-BETA-CYCLODEXTRIN] | Not Active | Not Active | Not Active | Not Active | Not Active | Not Active | Not Active | Not Active | – |
| O=C(O)P(=O)(O)O [FOSCARNET] | Not Active | Not Active | Not Active | Not Active | Not Active | Not Active | Not Active | Not Active | – |
| CC1=NN(c2ccccc2)C(=O)C1 [EDARAVONE] | Not Active | Not Active | Not Active | Not Active | Not Active | Not Active | Not Active | Not Active | – |
| CCCNC(C)C(=O)Nc1ccccc1C (configuration not stated) [PRILOCAINE] | Not Active | Not Active | Not Active | Not Active | Not Active | Not Active | Not Active | Not Active | – |
| C[C@@H]1C/C=C/C=C/C=C/C=C/[C@H](O[C@@H]2O[C@H](C)[C@@H](O)[C@H](N)[C@@H]2O)C[C@@H]2O[C@](O)(C[C@@H](O)C[C@H]3O[C@@H]3/C=C/C(=O)O1)C[C@H](O)[C@H]2C(=O)O [NATAMYCIN] | Not Active | Not Active | Not Active | Not Active | Not Active | Not Active | Not Active | Not Active | – |
| C[C@H]1O[C@H](O[C@H]2[C@H](O)[C@@H](O)[C@@H](O[C@H]3[C@H](O)[C@@H](O)C(O)O[C@@H]3CO)O[C@@H]2CO)[C@H](O)[C@@H](O)[C@@H]1N[C@H]1C=C(CO)[C@@H](O)[C@H](O)[C@H]1O (some centres not stated) [ACARBOSE] | Not Active | Not Active | Not Active | Not Active | Not Active | Not Active | Not Active | Not Active | – |
| CN(C)C(=N)NC(=N)N [METFORMIN] | Not Active | Not Active | Not Active | Not Active | Not Active | Not Active | Not Active | Not Active | – |
